Measurements published in ChEMBL document CHEMBL6121063, “Identification of a Potent and Selective CDK9 Degrader as a Targeted Therapeutic Option for the Treatment of Small-Cell Lung Cancer” (J Med Chem, 2025).
Converted amounts (≈) assume the structure as drawn.

Key:
[1] = Toxicity in mouse assessed as pathological changes in kidney at 12.5 to 25 mg/kg, po administered daily for 14 days by H and E staining based analysis; format: organism-based; conditions: in vivo, 336 h, dose 12.5-25 mg/kg, time 14 day
NCI-H446 [2] = experiment: Antitumor activity against human NCI-H446 cells xenografted in female NU-NU mouse model assessed as tumor growth inhibition at 12.5 mg/kg, po administered once daily for 15 days relative to control; format: functional; conditions: NCI-H446, 360 h, time 15 day, read-out: TGI
[3] = Cmax in mouse at 25 mg/kg, po; format: ADME, organism-based; conditions: in vivo
NCI-H524 = experiment: Antiproliferative activity against human NCI-H524 cells assessed as inhibition of cell growth incubated for 72 hrs by CCK8 assay; format: functional, cell-based; conditions: NCI-H524, 72 h
[4] = AUC (0 to infinity) in Sprague-Dawley rat at 25 mg/kg, po measured after 12 hrs by LC-MS/MS analysis; format: ADME, organism-based; conditions: in vivo
[5] = Cytotoxicity against HEK293T cells assessed as inhibition of cell growth incubated for 72 hrs by CCK8 assay; format: toxicity, cell-based, HEK-293T; conditions: human
NCI-H446 [6] = experiment: Antiproliferative activity against human NCI-H446 cells assessed as inhibition of cell growth incubated for 72 hrs by CCK8 assay; format: functional, cell-based; conditions: NCI-H446, 72 h
[7] = Toxicity in mouse assessed as pathological changes in heart at 12.5 to 25 mg/kg, po administered daily for 14 days by H and E staining based analysis; format: organism-based; conditions: in vivo, 336 h, dose 12.5-25 mg/kg, time 14 day
[8] = Metabolic stability in human liver microsomes assessed as intrinsic clearance; format: ADME, Microsome; conditions: liver microsomes, read-out: CLH
[9] = Metabolic stability in mouse liver microsomes assessed as half-life; format: ADME, Microsome; conditions: liver microsomes
[10] = Cmax in Sprague-Dawley rat at 25 mg/kg, po measured after 12 hrs by LC-MS/MS analysis; format: ADME, organism-based; conditions: in vivo
[11] = Apparent permeability across basolateral to apical side in human Caco-2 cells at 2 uM measured after 60 mins by HPLC analysis; format: ADME, cell-based
[12] = biological target: Protein cereblon/Cyclin-dependent kinase 9 (Homo sapiens, UniProt P50750+Q96SW2); experiment: PROTAC activity at CRBN/CDK9 in human NCI-H69 cells assessed as induction of CDK9 degradation incubated for 8 hrs by Western blot analysis; format: cell-based
Sequence of Protein cereblon/Cyclin-dependent kinase 9 (P50750 whole entry): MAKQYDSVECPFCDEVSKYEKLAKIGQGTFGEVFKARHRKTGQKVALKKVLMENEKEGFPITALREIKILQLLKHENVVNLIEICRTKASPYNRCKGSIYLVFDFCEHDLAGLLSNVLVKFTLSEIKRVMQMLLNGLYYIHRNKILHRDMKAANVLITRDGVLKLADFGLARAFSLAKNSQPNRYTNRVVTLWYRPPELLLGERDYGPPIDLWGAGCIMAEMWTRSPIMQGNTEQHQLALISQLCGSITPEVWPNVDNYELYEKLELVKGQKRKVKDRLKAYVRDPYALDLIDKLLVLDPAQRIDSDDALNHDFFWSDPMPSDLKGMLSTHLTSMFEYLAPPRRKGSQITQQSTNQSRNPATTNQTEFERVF
Sequence of Protein cereblon/Cyclin-dependent kinase 9 (Q96SW2 whole entry): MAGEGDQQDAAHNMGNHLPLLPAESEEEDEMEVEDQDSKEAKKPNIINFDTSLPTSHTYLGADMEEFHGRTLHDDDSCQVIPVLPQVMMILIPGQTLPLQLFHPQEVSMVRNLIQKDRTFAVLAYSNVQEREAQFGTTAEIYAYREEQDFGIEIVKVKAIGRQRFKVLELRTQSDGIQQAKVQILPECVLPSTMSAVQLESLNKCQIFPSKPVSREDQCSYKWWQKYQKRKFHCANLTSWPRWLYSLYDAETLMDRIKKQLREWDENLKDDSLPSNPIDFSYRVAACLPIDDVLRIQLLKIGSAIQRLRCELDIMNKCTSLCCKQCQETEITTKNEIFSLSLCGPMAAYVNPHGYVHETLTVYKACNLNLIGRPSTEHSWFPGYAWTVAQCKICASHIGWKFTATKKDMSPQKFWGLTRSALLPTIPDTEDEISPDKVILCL

[13] = Toxicity in mouse assessed as pathological changes in spleen at 12.5 to 25 mg/kg, po administered daily for 14 days by H and E staining based analysis; format: organism-based; conditions: in vivo, 336 h, dose 12.5-25 mg/kg, time 14 day
[14] = AUC (0 to 24 hrs) in Sprague-Dawley rat at 5 mg/kg, iv measured after 12 hrs by LC-MS/MS analysis; format: ADME, organism-based; conditions: in vivo
NCI-H146 = experiment: Antiproliferative activity against human NCI-H146 cells assessed as inhibition of cell growth incubated for 72 hrs by CCK8 assay; format: functional, cell-based; conditions: NCI-H146, 72 h
DMS-114 = experiment: Antiproliferative activity against human DMS-114 cells assessed as inhibition of cell growth incubated for 72 hrs by CCK8 assay; format: functional, cell-based; conditions: DMS-114, 72 h
[15] = Kinetic solubility of compound in FeSSIF buffer incubated for 2 hrs by LC-MS/MS analysis; format: physicochemical; conditions: read-out: Kinetic_solubility
[16] = Toxicity in mouse assessed as pathological changes in lung at 12.5 to 25 mg/kg, po administered daily for 14 days by H and E staining based analysis; format: organism-based; conditions: in vivo, 336 h, dose 12.5-25 mg/kg, time 14 day
Mus musculus [17] = experiment: Toxicity in female NU/NU mouse model xenografted with human NCI-H446 cells assessed as effect on body weight at 12.5 to 25 mg/kg, po administered once daily for 15 days; format: organism-based; conditions: in vivo, 360 h, dose 12.5-25 mg/kg, time 15 day
[18] = Oral bioavailability in Sprague-Dawley rat at 25 mg/kg measured after 12 hrs by LC-MS/MS analysis; format: ADME, organism-based; conditions: in vivo
[19] = Metabolic stability in mouse liver microsomes assessed as intrinsic clearance; format: ADME, Microsome; conditions: liver microsomes, read-out: CLH
[20] = Half-life in mouse at 5 mg/kg, iv; format: ADME, organism-based; conditions: in vivo
[21] = Half-life in Sprague-Dawley rat at 5 mg/kg, iv measured after 12 hrs by LC-MS/MS analysis; format: ADME, organism-based; conditions: in vivo
[22] = AUC (0 to infinity) in mouse at 5 mg/kg, iv; format: ADME, organism-based; conditions: in vivo
[23] = AUC (0 to 24 hrs) in Sprague-Dawley rat at 25 mg/kg, po measured after 12 hrs by LC-MS/MS analysis; format: ADME, organism-based; conditions: in vivo
NCI-H69 = experiment: Antiproliferative activity against human NCI-H69 cells assessed as inhibition of cell growth incubated for 72 hrs by CCK8 assay; format: functional, cell-based; conditions: NCI-H69, 72 h
[24] = Cytotoxicity against human L02 cells assessed as inhibition of cell growth incubated for 72 hrs by CCK8 assay; format: toxicity, cell-based
Mus musculus [25] = experiment: Hematotoxicity in mouse assessed as effect on WBC count at 12.5 to 25 mg/kg, po administered daily for 14 days; format: toxicity, organism-based; conditions: in vivo, 336 h, dose 12.5-25 mg/kg, time 14 day
[26] = Cmax in Sprague-Dawley rat at 5 mg/kg, iv measured after 12 hrs by LC-MS/MS analysis; format: ADME, organism-based; conditions: in vivo
[27] = Apparent permeability across apical to basolateral side in human Caco-2 cells at 2 uM measured after 60 mins by HPLC analysis; format: ADME, cell-based
[28] = AUC (0 to 24 hrs) in mouse at 5 mg/kg, iv; format: ADME, organism-based; conditions: in vivo
[29] = Oral bioavailability in mouse at 25 mg/kg; format: ADME, organism-based; conditions: in vivo
Mus musculus [30] = experiment: Hematotoxicity in mouse assessed as effect on platelet count at 12.5 to 25 mg/kg, po administered daily for 14 days; format: toxicity, organism-based; conditions: in vivo, 336 h, dose 12.5-25 mg/kg, time 14 day
[31] = Cmax in mouse at 5 mg/kg, iv; format: ADME, organism-based; conditions: in vivo
[32] = AUC (0 to infinity) in Sprague-Dawley rat at 5 mg/kg, iv measured after 12 hrs by LC-MS/MS analysis; format: ADME, organism-based; conditions: in vivo
Mus musculus [33] = experiment: Toxicity in female NU/NU mouse model xenografted with human NCI-H446 cells expressing luciferase-GFP assessed as effect on body weight at 12.5 to 25 mg/kg, po administered for 19 days; format: organism-based; conditions: in vivo, 456 h, dose 12.5-25 mg/kg, time 19 day
[34] = Half-life in Sprague-Dawley rat at 25 mg/kg, po measured after 12 hrs by LC-MS/MS analysis; format: ADME, organism-based; conditions: in vivo
[35] = Toxicity in mouse assessed as pathological changes in liver at 12.5 to 25 mg/kg, po administered daily for 14 days by H and E staining based analysis; format: organism-based; conditions: in vivo, 336 h, dose 12.5-25 mg/kg, time 14 day
NCI-H446 [36] = experiment: Antitumor activity against human NCI-H446 cells xenografted in female NU-NU mouse model assessed as tumor growth inhibition at 25 mg/kg, po administered once daily for 15 days relative to control; format: functional; conditions: NCI-H446, 360 h, time 15 day, read-out: TGI
[37] = Metabolic stability in human liver microsomes assessed as parent compound remaining measured after 60 mins; format: ADME, Microsome; conditions: read-out: Stability
[38] = Cytotoxicity against human BEAS-2B cells assessed as inhibition of cell growth incubated for 72 hrs by CCK8 assay; format: toxicity, cell-based
[39] = Half-life in mouse at 25 mg/kg, po; format: ADME, organism-based; conditions: in vivo
[40] = Cytotoxicity against human MCF-10A cells assessed as inhibition of cell growth incubated for 72 hrs by CCK8 assay; format: toxicity, cell-based
[41] = biological target: Voltage-gated inwardly rectifying potassium channel KCNH2 (Homo sapiens, UniProt Q12809); experiment: Inhibition of human ERG expressed in HEK293 cells by manual-patch clamp assay; format: toxicity, cell-based
Sequence of Voltage-gated inwardly rectifying potassium channel KCNH2 (Q12809 whole entry): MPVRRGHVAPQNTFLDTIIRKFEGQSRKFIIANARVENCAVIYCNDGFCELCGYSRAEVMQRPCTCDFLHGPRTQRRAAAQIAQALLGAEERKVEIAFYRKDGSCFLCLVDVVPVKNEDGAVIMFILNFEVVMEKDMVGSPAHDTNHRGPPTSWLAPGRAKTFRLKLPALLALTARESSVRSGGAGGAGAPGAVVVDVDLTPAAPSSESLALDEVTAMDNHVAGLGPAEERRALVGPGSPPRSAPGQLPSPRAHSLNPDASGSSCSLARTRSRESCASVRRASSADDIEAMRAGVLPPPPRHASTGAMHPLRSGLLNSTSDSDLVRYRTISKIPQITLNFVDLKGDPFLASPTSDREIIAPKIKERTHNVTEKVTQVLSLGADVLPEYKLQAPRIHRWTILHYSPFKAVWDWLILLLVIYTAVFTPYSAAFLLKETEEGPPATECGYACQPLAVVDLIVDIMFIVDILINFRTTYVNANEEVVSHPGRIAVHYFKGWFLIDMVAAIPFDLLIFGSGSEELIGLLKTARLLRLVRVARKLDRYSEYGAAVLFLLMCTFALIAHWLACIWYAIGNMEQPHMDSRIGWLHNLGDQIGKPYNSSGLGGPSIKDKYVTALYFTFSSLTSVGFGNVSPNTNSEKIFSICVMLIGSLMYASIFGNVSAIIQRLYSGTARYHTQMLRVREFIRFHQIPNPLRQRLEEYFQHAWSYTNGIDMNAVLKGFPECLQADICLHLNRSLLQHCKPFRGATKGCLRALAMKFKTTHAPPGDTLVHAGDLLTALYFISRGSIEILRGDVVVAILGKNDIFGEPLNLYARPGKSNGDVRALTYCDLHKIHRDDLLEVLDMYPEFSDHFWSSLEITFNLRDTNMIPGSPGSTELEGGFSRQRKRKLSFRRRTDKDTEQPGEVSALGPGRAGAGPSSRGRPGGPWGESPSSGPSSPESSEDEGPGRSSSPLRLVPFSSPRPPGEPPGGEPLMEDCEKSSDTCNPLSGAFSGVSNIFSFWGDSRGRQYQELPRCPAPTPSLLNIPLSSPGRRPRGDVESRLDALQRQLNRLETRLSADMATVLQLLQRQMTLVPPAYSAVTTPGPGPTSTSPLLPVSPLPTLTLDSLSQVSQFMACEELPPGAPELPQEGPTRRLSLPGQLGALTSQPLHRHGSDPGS

[42] = AUC (0 to 24 hrs) in mouse at 25 mg/kg, po; format: ADME, organism-based; conditions: in vivo
[43] = Metabolic stability in human liver microsomes assessed as half-life; format: ADME, Microsome; conditions: liver microsomes
[44] = Metabolic stability in mouse liver microsomes assessed as parent compound remaining measured after 60 mins; format: ADME, Microsome; conditions: read-out: Stability
[45] = Efflux ratio of apparent permeability across basolateral to apical over apical to basolateral side in human Caco-2 cells at 2 uM measured after 60 mins by HPLC analysis; format: ADME, cell-based
[46] = AUC (0 to infinity) in mouse at 25 mg/kg, po; format: ADME, organism-based; conditions: in vivo

For O=C1CCC(Nc2cccc(N3CCN(CC4CCN(CC(=O)N5CCC(NC(=O)c6n[nH]cc6NC(=O)c6c(Cl)cccc6Cl)CC5)CC4)CC3)c2)C(=O)N1 (stereo not given), which Activity [1] is on record?
Its Activity is “Minimal_effect”.

And the inhibition in vivo at 12.5 mg/kg (NCI-H446 [2])?
The inhibition in vivo at 12.5 mg/kg was 79.2%.

And the Cmax [3]?
The Cmax was 277 ng/mL.

What about the IC50 (NCI-H524) of the same compound?
Its IC50 is 0.53 nM.

What about the AUC(0-inf) [4] of the same compound?
The AUC(0-inf) was 893 ng·h/mL.

And the IC50 at 72 h [5]?
Its IC50 at 72 h is 95 nM.

And the IC50 (NCI-H446 [6])?
The IC50 was 1.01 nM.

And the Activity [7]?
Its Activity is “Minimal_effect”.

What about the microsomal CLint [8] of the same compound?
Its microsomal CLint is 11 µL/min/mg.

What about the half-life [9] of the same compound?
The half-life was 2.42 h.

And the Cmax [10]?
Its Cmax is 179 ng/mL.

And the Papp B→A at 1 h, 2 µM [11]?
The Papp B→A at 1 h, 2 µM was 9.47 ×10⁻⁶ cm/s.

What about the DC50 [12] of the same compound?
The DC50 was 1.09 nM.

And the Activity [13]?
The Activity was “Minimal_effect”.

What about the AUC(0-t) at 12 h [14] of the same compound?
Its AUC(0-t) at 12 h is 2180 ng·h/mL.

And the IC50 (NCI-H146)?
Its IC50 is 0.53 nM.

What about the IC50 (DMS-114) of the same compound?
The IC50 was 0.53 nM.

What about the solubility kinetic at 2 h [15] of the same compound?
Its solubility kinetic at 2 h is 234 µM (≈ 189 µg/mL).

What about the Activity [16] of the same compound?
The Activity was “Minimal_effect”.

What about the Activity (Mus musculus [17]) of the same compound?
Its Activity is “Non-toxic”.

What about the bioavailability [18] of the same compound?
The bioavailability was 6.5%.

And the microsomal CLint [19]?
The microsomal CLint was 9.4 µL/min/mg.

What about the half-life [20] of the same compound?
Its half-life is 8.2 h.

And the half-life [21]?
The half-life was 2.8 h.

What about the AUC(0-inf) [22] of the same compound?
Its AUC(0-inf) is 2860 ng·h/mL.

What about the AUC(0-t) at 12 h [23] of the same compound?
The AUC(0-t) at 12 h was 714 ng·h/mL.

What about the IC50 (NCI-H69) of the same compound?
The IC50 was 1.03 nM.

And the IC50 at 72 h [24]?
The IC50 at 72 h was 70 nM.

What about the Activity (Mus musculus [25]) of the same compound?
The Activity was “Non-toxic”.

What about the Cmax [26] of the same compound?
The Cmax was 2000 ng/mL.

And the Papp A→B at 1 h, 2 µM [27]?
The Papp A→B at 1 h, 2 µM was 1.81 ×10⁻⁶ cm/s.

What about the AUC(0-t) [28] of the same compound?
Its AUC(0-t) is 2660 ng·h/mL.

What about the bioavailability [29] of the same compound?
Its bioavailability is 6.8%.

And the Activity (Mus musculus [30])?
The Activity was “Non-toxic”.

What about the Cmax [31] of the same compound?
The Cmax was 2600 ng/mL.

What about the AUC(0-inf) [32] of the same compound?
Its AUC(0-inf) is 2330 ng·h/mL.

And the Activity (Mus musculus [33])?
Its Activity is “Non-toxic”.

And the half-life [34]?
The half-life was 5.4 h.

What about the Activity [35] of the same compound?
Its Activity is “Minimal_effect”.

What about the inhibition in vivo at 25 mg/kg (NCI-H446 [36]) of the same compound?
Its inhibition in vivo at 25 mg/kg is 84.8%.

What about the remaining at 1 h [37] of the same compound?
Its remaining at 1 h is 76.2%.

And the IC50 at 72 h [38]?
The IC50 at 72 h was 413 nM.

And the half-life [39]?
Its half-life is 4.7 h.

And the IC50 at 72 h [40]?
Its IC50 at 72 h is 126 nM.

And the IC50 [41]?
The IC50 was greater than 30000 nM.

And the AUC(0-t) [42]?
Its AUC(0-t) is 951 ng·h/mL.

And the half-life [43]?
Its half-life is 1.77 h.

What about the remaining at 1 h [44] of the same compound?
The remaining at 1 h was 82.8%.

And the efflux ratio at 1 h, 2 µM [45]?
The efflux ratio at 1 h, 2 µM was 5.2.

And the AUC(0-inf) [46]?
The AUC(0-inf) was 971 ng·h/mL.
